Source: PMC10694602, “Binding of perilipin 3 to membranes containing diacylglycerol is mediated by conserved residues within its PAT domain” (The Journal of Biological Chemistry, 2023)
Changes are numbered by the printed parent chain. Where a name gives a salt, the structure may show the parent alone. Read-outs that look alike come from different tables or passages of the source. One block for each compound: values may come before it.

Experiments:
PLIN3 = target: T1, PLIN3 (Homo sapiens, UniProt O60664); assay: Microscale thermophoresis (MST) binding of lipids, liposomes or ALDs to full-length WT PLIN3; conditions: for fold increase of PLIN3 binding versus unspiked DOPC/DOPE liposomes: DOPC/DOPE (80/20 mol%) liposomes, DAG 5 mol%, DOPA 10 mol%
T1 construct: Plasmids containing human full-length PLIN3 or fragments thereof were obtained by PCR amplification; made in house; host or cells: Escherichia coli BL21 (DE3) or NiCo21 (DE3)
T1 sequence (O60664 1-434): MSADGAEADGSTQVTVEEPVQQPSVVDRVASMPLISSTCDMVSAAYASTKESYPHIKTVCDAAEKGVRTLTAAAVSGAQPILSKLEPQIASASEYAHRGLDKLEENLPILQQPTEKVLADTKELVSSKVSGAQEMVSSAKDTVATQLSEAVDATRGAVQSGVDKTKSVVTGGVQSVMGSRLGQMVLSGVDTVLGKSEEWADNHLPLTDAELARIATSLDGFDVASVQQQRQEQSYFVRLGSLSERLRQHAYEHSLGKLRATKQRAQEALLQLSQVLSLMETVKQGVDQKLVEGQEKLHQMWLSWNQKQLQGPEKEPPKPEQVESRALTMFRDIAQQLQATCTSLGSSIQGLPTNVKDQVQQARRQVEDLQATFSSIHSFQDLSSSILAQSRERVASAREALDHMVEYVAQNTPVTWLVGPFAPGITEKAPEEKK
Text: To corroborate these findings, we analyzed binding of PLIN3 to liposomes using microscale thermophoresis (MST), an immobilization-free technology for measuring biomolecular interactions based on the diffusion of a fluorescently labeled protein along a microscopic temperature gradient. In this assay, the free protein diffuses faster than the one which has bound to a ligand. Ligands can range from small ions to low molecular weight compounds, liposomes, or even viruses ([24], [25], [26], [27], [28]). Variations in fluorescence intensity are then plotted against the ligand concentrations to determine a binding affinity. […] To determine the optimal DAG concentrations for PLIN3 binding, we varied the DAG concentrations in the ER-liposomes between 0 to 20 mol%.
(§1) Binding of purified PLIN3 protein and PLIN3 domains to liposomes, ALDs, or short chain lipids was determined by MST using a Monolith NT.115 system (Nanotemper Technologies). Proteins were labeled with a RED-tris-NTA His tag protein-labeling reagent following the manufacturer’s instructions (Nanotemper Technologies). Labeled proteins were added to a serial dilution of unlabeled lipids, liposomes, or ALDs, and the mixtures were loaded into MST standard capillaries to assess binding affinities. The dissociation constant was obtained by plotting fluorescence intensities of the protein–lipid complex against the concentrations of the unlabeled lipids, liposomes, or ALDs. Experiments were performed in triplicates and data were fitted using the KD Model of the MO.Affinity Analysis software (https://nanotempertech.com/, Nanotemper Technologies).

4-helix bundle of PLIN3 = target: T2, 4-helix bundle of PLIN3 (Homo sapiens, UniProt O60664); assay: MST binding to the 4-helix bundle of PLIN3
T2 sequence (O60664 245-434 limits assumed): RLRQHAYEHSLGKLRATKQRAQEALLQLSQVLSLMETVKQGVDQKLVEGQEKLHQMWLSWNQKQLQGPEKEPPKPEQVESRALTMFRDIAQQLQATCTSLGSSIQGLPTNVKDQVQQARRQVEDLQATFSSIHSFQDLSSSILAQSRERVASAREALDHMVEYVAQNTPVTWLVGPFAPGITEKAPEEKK
Text: (§2) To gain further insight into the binding of PLIN3 to DAG-containing membranes, we examined the contribution of each individual domain of PLIN3 towards lipid binding, that is, the N-terminal PAT domain, the central 11-mer repeat region, and the C-terminally located 4-helix bundle (Fig. 2A). Therefore, we expressed and purified proteins harboring individual domains of PLIN3 and first examined their binding of short-chain lipids.
as §1

His-tagged human PLIN3 = target: T3, His-tagged human PLIN3 (Homo sapiens, UniProt O60664); assay: Liposome flotation assay on a sucrose gradient, PLIN3 detected by Western blotting; format: binding; conditions: ER-liposomes containing 16:0 DAG at 5 mol%; top layer of sucrose gradient
T3 construct: Plasmids containing human full-length PLIN3 or fragments thereof were obtained by PCR amplification; made in house; host or cells: Escherichia coli BL21 (DE3) or NiCo21 (DE3)
T3 sequence (O60664 1-434): T1 sequence (O60664 1-434)
Description: To examine the interaction between soluble PLIN3 and membranes containing DAG, we first performed liposome-binding assays. Therefore, purified His-tagged human PLIN3 was incubated with liposomes prepared from a phospholipid mixture that mimics the composition of the ER membrane (DOPC/DOPE/DOPS/DOPA/SoyPI, 53/23/8/5/11 mol%; hereafter termed ER-liposomes) lacking or containing low concentrations of DAG (16:0 DAG; 5 mol%). Liposomes were then floated on a sucrose gradient, and PLIN3 binding was monitored by Western blotting.
Purified PLIN3 was incubated with liposomes for 1 h at RT and then gently mixed with an equal volume of 60% (w/v) sucrose solution in liposome buffer to obtain a final sucrose concentration of 30%. This mixture was overlaid with two volumes of 20% sucrose solution, two volumes of 10% sucrose solution, and one volume of liposome buffer. The samples were centrifuged at 177,000g for 1 h at 20 °C. Four fractions were collected from the top of the gradient and the distribution of PLIN3 was analyzed by Western blotting. Signal intensities were quantified using ImageJ (https://imagej.net/ij/) software.

PAT domain of PLIN3 = target: T4, PAT domain of PLIN3 (Homo sapiens, UniProt O60664); assay: MST binding to the PAT domain of PLIN3; conditions: short chain lipids as free ligands; for Kd: n.d. = not detected, Fig. 2B
T4 sequence (O60664 1-107 limits assumed): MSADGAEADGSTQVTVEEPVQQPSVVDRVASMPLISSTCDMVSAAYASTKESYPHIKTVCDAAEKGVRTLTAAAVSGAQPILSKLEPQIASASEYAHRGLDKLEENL
Text: as §2, §1

[1] = target: T5, 11-mer repeat region of PLIN3 (Homo sapiens, UniProt O60664); assay: MST binding to the 11-mer repeat region of PLIN3; conditions: short chain lipids as free ligands; n.d. = not detected; Fig. 2B
T5 sequence (O60664 115-179 limits assumed): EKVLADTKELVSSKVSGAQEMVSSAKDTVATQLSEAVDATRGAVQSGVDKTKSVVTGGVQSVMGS
Text: as §2, §1

PLIN3 - E86A = target: T6, PLIN3 - E86A (Homo sapiens, UniProt O60664, E86A); assay: MST binding to the PLIN3 point mutant; conditions: short chain lipid as free ligand
T6 construct: Plasmids containing human full-length PLIN3 or fragments thereof were obtained by PCR amplification; made in house; host or cells: Escherichia coli BL21 (DE3) or NiCo21 (DE3)
T6 sequence (O60664 1-434 E86A): T1 sequence (O60664 1-434) with E86A
Text: (§3) To validate this predicted mode of DAG binding by the PAT domain, we generated mutant versions of PLIN3 and assessed their impact on DAG binding by MST. First, we tested whether the simultaneous substitution of the five residues, Q22, S24, E86A, I89G, and S93A, would impact either binding of short chain DAG or that of liposomes containing low concentrations of DAG. […] To assess the impact of these residues in more detail, we first tested mutations in the two serine residues S24A and S93A. […] To confirm the importance of the glutamic acid residue at position 86 for binding of DAG, we also generated an E86A point mutant version.
as §1, with “Experiments were performed in triplicates and data were fitted using the KD Model of the MO.Affinity Analysis software (https://nanotempertech.com/, Nanotemper Technologies).” left out

PLIN3 - S24A S93A = target: T7, PLIN3 - S24A S93A (Homo sapiens, UniProt O60664, S24A/S93A); assay: MST binding to the PLIN3 serine double mutant; conditions: short chain lipid as free ligand
T7 construct: Plasmids containing human full-length PLIN3 or fragments thereof were obtained by PCR amplification; made in house; host or cells: Escherichia coli BL21 (DE3) or NiCo21 (DE3)
T7 sequence (O60664 1-434 S24A/S93A): T1 sequence (O60664 1-434) with S24A, S93A
Text: as §3
as §1, with “Experiments were performed in triplicates and data were fitted using the KD Model of the MO.Affinity Analysis software (https://nanotempertech.com/, Nanotemper Technologies).” left out

PLIN3 - E86A I89G S93A = target: T8, PLIN3 - E86A I89G S93A (Homo sapiens, UniProt O60664, E86A/I89G/S93A); assay: MST binding to the PLIN3 triple mutant; conditions: short chain lipid as free ligand; n.d. = not detected; Fig. 4C
T8 construct: Plasmids containing human full-length PLIN3 or fragments thereof were obtained by PCR amplification; made in house; host or cells: Escherichia coli BL21 (DE3) or NiCo21 (DE3)
T8 sequence (O60664 1-434 E86A/I89G/S93A): T1 sequence (O60664 1-434) with E86A, I89G, S93A
Text: as §3
as §1, with “Experiments were performed in triplicates and data were fitted using the KD Model of the MO.Affinity Analysis software (https://nanotempertech.com/, Nanotemper Technologies).” left out

[2] = target: T9, PLIN3 - Q22A S24A E86A I89G S93A (Homo sapiens, UniProt O60664, E86A/I89G/Q22A/S24A/S93A); assay: MST binding to the PLIN3 quintuple mutant; conditions: short chain lipid as free ligand; n.d.; Fig. S1
T9 construct: Plasmids containing human full-length PLIN3 or fragments thereof were obtained by PCR amplification; made in house; host or cells: Escherichia coli BL21 (DE3) or NiCo21 (DE3)
T9 sequence (O60664 1-434 Q22A/S24A/E86A/I89G/S93A): T1 sequence (O60664 1-434) with Q22A, S24A, E86A, I89G, S93A
Text: as §3
as §1, with “Experiments were performed in triplicates and data were fitted using the KD Model of the MO.Affinity Analysis software (https://nanotempertech.com/, Nanotemper Technologies).” left out

[3] = ER-liposomes supplemented with the named DAG at 5 mol%, KD against liposome concentration, Fig. 1C, read-out: KD
[4] = short chain lipid as free ligand, Fig. 1I, Fig. 4C, read-out: KD

Kd (PLIN3; ER-liposomes supplemented with 20 mol% cholesterol, Fig. 1E, read-out: KD): 64.9 µM
Compound: CC(C)CCC[C@@H](C)[C@H]1CC[C@H]2[C@@H]3CC=C4C[C@@H](O)CC[C@]4(C)[C@H]3CC[C@]12C [cholesterol]

Compound: CCCCCCC(=O)OC[C@H](COP(=O)([O-])OCC[N+](C)(C)C)OC(=O)CCCCCC [7:0 PC, 1,2-diheptanoyl-sn-glycero-3-phosphocholine]
Kd (PLIN3): 214 ± 71 µM | Kd (4-helix bundle of PLIN3): 88.5 ± 28.8 µM

fraction of PLIN3 recovered from liposomes (His-tagged human PLIN3): 13.9% | fold increase of PLIN3 binding versus unspiked DOPC/DOPE liposomes (PLIN3): 36 fold | fold lower dissociation constant than ER-liposomes lacking DAG (PLIN3; ER-liposomes containing 16:0 DAG at 5 mol%): 29 fold | Kd (PLIN3; [3]): 20.6 µM | Kd (PLIN3; PC/PE liposomes (DOPC/DOPE; 80/20 mol%) spiked with 16:0 DAG at 5 mol%, Fig. 1H, read-out: KD): 15 µM
Compound: CCCCCCCCCCCCCCCC(=O)OC[C@H](CO)OC(=O)CCCCCCCCCCCCCCC [16:0 DAG, 1,2-dipalmitoyl-sn-glycerol]

Kd (PAT domain of PLIN3): 106 ± 30.5 µM | Kd [1]: 471 ± 53.8 µM
Compound: CCCCCCCC(=O)OC[C@H](COP(=O)(O)OC[C@H](N)C(=O)O)OC(=O)CCCCCCC [8:0 PS, 1,2-dioctanoyl-sn-glycero-3-phospho-L-serine sodium salt]

Kd (PLIN3; [3]): 60.1 µM
Compound: CCCCCCCC/C=C\CCCCCCCC(=O)OC[C@H](CO)OC(=O)CCCCCCC/C=C\CCCCCCCC [18:1 DAG, 1,2-dioleoyl-sn-glycerol]

fold increase of PLIN3 binding versus unspiked DOPC/DOPE liposomes (PLIN3): 9 fold | Kd (PLIN3; PC/PE liposomes (DOPC/DOPE; 80/20 mol%) spiked with the named lipid at 10 mol%, n.d. = not detected, Fig. 1H, read-out: KD): 58.1 µM
Compound: CCCCCCCC/C=C\CCCCCCCC(=O)OC[C@H](COP(=O)(O)O)OC(=O)CCCCCCC/C=C\CCCCCCCC [18:1 PA, 1,2-dioleoyl-sn-glycero-3-phosphate]

Kd (PAT domain of PLIN3): 14.1 µM
Compound: CCCCCCCC(=O)OC[C@H](COP(=O)(O)O)OC(=O)CCCCCCC [8:0 PA, 1,2-dioctanoyl-sn-glycero-3-phosphate sodium salt]

Kd (PAT domain of PLIN3): 17.3 µM | Kd (PLIN3; [4]): 0.27 µM
Compound: CCCCCCCC(=O)OCC(COC(=O)CCCCCCC)OC(=O)CCCCCCC [8:0 TAG, 1,2,3-trioctanoylglycerol]

fold less efficient binding than WT PLIN3 (PLIN3 - E86A): 873 fold | Kd (PLIN3 - E86A; Fig. 4C): 87.3 µM | fold decreased affinity versus WT PLIN3 (PLIN3 - S24A S93A): 20.9 fold | Kd (PLIN3 - S24A S93A; Fig. S1): 2.09 µM | KD (PLIN3 - E86A I89G S93A): failed to bind | fold stronger binding than 8:0 PA (PAT domain of PLIN3): 36 fold | Kd (PAT domain of PLIN3): 0.39 µM | KD [2]: failed to bind | Kd (PLIN3; [4]): 0.1 µM | Kd (4-helix bundle of PLIN3; short chain lipids as free ligands, n.d. = not detected, Fig. 2B, read-out: KD 4-helix): 20.7 µM
Compound: CCCCCCCC(=O)OC[C@H](CO)OC(=O)CCCCCCC [8:0 DAG, 1,2-dioctanoyl-sn-glycerol]
